Assay results published in patent US11542255B2, “Sulfonylureas and sulfonylthioureas as NLRP3 inhibitors” (Inflazome Limited, priority 2017, dated 2023).
Counter-ions that a name gives are not always drawn.

How the values were obtained:
[1] = biological target: T1, NLRP3 (Homo sapiens, UniProt Q96P20); experiment: THP-1 cells pyroptosis assay (LPS + nigericin, resazurin readout); assay type: cell-based; set-up: Seed THP-1 cells (25,000 cells/well) containing 1.0 μg/ml LPS in 40 μl of RPMI medium; host or cells: THP-1 cells; conditions: NLRP3 inhibitory activity, 1.0 μg/ml LPS, 5 μM nigericin
T1 sequence (Q96P20 whole entry): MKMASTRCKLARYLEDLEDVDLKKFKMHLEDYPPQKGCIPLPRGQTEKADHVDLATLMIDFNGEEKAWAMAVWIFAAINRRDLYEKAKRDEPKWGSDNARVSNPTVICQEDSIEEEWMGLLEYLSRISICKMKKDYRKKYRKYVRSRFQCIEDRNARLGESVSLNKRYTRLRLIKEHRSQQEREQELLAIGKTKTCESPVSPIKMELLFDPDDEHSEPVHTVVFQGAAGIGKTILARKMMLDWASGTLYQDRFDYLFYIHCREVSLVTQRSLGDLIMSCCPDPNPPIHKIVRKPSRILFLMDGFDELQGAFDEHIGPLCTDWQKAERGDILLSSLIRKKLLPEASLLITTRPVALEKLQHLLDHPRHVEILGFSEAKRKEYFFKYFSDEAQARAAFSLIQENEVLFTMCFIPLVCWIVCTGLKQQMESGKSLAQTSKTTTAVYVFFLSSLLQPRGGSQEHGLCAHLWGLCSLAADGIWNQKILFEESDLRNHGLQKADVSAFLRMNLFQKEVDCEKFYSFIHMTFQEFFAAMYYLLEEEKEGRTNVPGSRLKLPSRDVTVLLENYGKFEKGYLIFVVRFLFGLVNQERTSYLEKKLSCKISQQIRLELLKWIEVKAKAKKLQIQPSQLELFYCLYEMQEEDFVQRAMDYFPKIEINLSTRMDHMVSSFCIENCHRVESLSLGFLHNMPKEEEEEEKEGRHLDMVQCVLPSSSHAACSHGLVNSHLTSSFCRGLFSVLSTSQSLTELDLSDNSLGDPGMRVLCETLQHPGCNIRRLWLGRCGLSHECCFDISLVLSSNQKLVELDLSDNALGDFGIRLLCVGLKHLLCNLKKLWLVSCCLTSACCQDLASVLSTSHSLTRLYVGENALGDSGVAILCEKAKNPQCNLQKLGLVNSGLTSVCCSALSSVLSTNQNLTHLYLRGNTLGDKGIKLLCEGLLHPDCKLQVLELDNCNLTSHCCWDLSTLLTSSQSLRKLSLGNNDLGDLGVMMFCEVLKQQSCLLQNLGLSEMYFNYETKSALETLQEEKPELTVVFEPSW
Protocol: THP-1 cells (ATCC #TIB-202) were grown in RPMI containing L-glutamine (Gibco #11835) supplemented with 1 mM sodium pyruvate (Sigma #S8636) and penicillin (100 units/ml)/streptomycin (0.1 mg/ml) (Sigma #P4333) in 10% Fetal Bovine Serum (FBS) (Sigma #F0804). The cells were routinely passaged and grown to confluency (˜10^6 cells/ml). On the day of the experiment, THP-1 cells were harvested and resuspended into RPMI medium (without FBS). The cells were then counted and viability (>90%) checked by Trypan blue (Sigma #T8154). Appropriate dilutions were made to give a concentration of 625,000 cells/ml. To this diluted cell solution was added LPS (Sigma #L4524) to give a […] Final Assay Concentration (FAC). 40 μl of the final preparation was aliquoted into each well of a 96-well plate. The plate thus prepared was used for compound screening.
The following method step-by-step assay was followed for compound screening. • 1. Seed THP-1 cells (25,000 cells/well) containing 1.0 μg/ml LPS in 40 μl of RPMI medium (without FBS) in 96-well, black walled, clear bottom cell culture plates coated with poly-D-lysine (VWR #734-0317) • 2. Add 5 μl compound (8 points half-log dilution, with 10 μM top dose) or vehicle (DMSO 0.1% FAC) to the appropriate wells • 3. Incubate for 3 hrs at 37° C. in 5% CO2 • 4. Add 5 μl nigericin (Sigma #N7143) (FAC 5 μM) to all wells • 5. Incubate for 1 hr at 37° C. and 5% CO2 • 6. At the end of the incubation period, spin plates at 300×g for 3 mins and remove supernatant • 7. Then add 50 μl of resazurin (Sigma #R7017) (FAC 100 μM resazurin in RPMI medium without FBS) and incubate plates for a further 1-2 hrs at 37° C. and 5% CO2 • 8. Plates were read in an Envision reader at Ex 560 nm and Em 590 nm • 9. IC50 data is fitted to a non-linear regression equation (log inhibitor vs response-variable slope 4-parameters)

[2] = biological target: T1, NLRP3; experiment: Human whole blood IL1β release assay (LPS + nigericin, AlphaLisa IL-1β); assay type: cell-based; set-up: Human whole blood in Li-heparin tubes was obtained from healthy donors from a volunteer donor panel; from tissue; host or cells: human whole blood from healthy donors; conditions: NLRP3 inhibitory activity, 1 μg/ml LPS, 10 μM nigericin, IL-1β release, read-out: HWB IC50
Protocol: For systemic delivery, the ability to inhibit NLRP3 when the compounds are present within the bloodstream is of great importance. For this reason, the NLRP3 inhibitory activity of a number of compounds in human whole blood was investigated in accordance with the following protocol.
Human whole blood in Li-heparin tubes was obtained from healthy donors from a volunteer donor panel. • 1. Plate out 80 μl of whole blood containing 1 μg/ml of LPS in 96-well, clear bottom cell culture plate (Corning #3585) • 2. Add 10 μl compound (8 points half-log dilution with 10 μM top dose) or vehicle (DMSO 0.1% FAC) to the appropriate wells • 3. Incubate for 3 hrs at 37° C., 5% CO2 • 4. Add 10 μl Nigericin (Sigma #N7143) (10 μM FAC) to all wells • 5. Incubate for 1 hr at 37° C., 5% CO2 • 6. At the end of the incubation period, spin plates at 300×g for 5 mins to pellet cells and remove 20 μl of supernatant and add to 96-well v-bottom plates for IL-1β analysis (note: these plates containing the supernatants can be stored at −80° C. to be analysed at a later date) • 7. IL-1β was measured according to the manufacturer protocol (Perkin Elmer-AlphaLisa IL-1β Kit AL220F-5000) • 8. IC50 data is fitted to a non-linear regression equation (log inhibitor vs response-variable slope 4-parameters)

Row | SMILES | IC50 [1] | IC50 [2]
1 | CC(c1cc(S(=O)(=O)NC(=O)Nc2c3c(cc4c2CCC4)CCC3)nn1C)N1CCC1 (single isomer, unassigned; enantiomer 1) [Example 26, 5-(1-(Azetidin-1-yl)ethyl)-N-((1,2,3,5,6,7-hexahydro-s-indacen-4-yl)carbamoyl)-1-methyl-1H-pyrazole-3-sulfonamide, Sodium Salt (Enantiomer 1)] | 40 to 160 nM | < 400 nM
2 | CN1CCn2nc(S(=O)(=O)NC(=O)Nc3c4c(cc5c3CCC5)CCC4)cc2C1 [Example 5, N-((1,2,3,5,6,7-Hexahydro-s-indacen-4-yl)carbamoyl)-5-methyl-4,5,6,7-tetrahydropyrazolo[1,5-a]pyrazine-2-sulfonamide] | 160 to 640 nM | 1600 to 3200 nM
3 | CC(C)c1cc(S(=O)(=O)NC(=O)Nc2c3c(cc4c2CCC4)CCC3)nn1CCN(C)C [Example 6, 1-(2-(Dimethylamino)ethyl)-N-((1,2,3,5,6,7-hexahydro-s-indacen-4-yl)carbamoyl)-5-isopropyl-1H-pyrazole-3-sulfonamide] | 160 to 640 nM | 800 to 1600 nM
4 | CCn1nc(S(=O)(=O)NC(=O)Nc2c(-c3ccnc(OC)c3)ccc3c2CCC3)cc1CN(C)C [Example 17, 5-((Dimethylamino)methyl)-1-ethyl-N-((5-(2-methoxypyridin-4-yl)-2,3-dihydro-1H-inden-4-yl)carbamoyl)-1H-pyrazole-3-sulfonamide] | < 40 nM | < 400 nM
5 | CCn1nc(S(=O)(=O)NC(=O)Nc2c(-c3cccnc3)cc(F)c3c2CCC3)cc1CN(C)C [Example 20, 5-((Dimethylamino)methyl)-1-ethyl-N-((7-fluoro-5-(pyridin-3-yl)-2,3-dihydro-1H-inden-4-yl)carbamoyl)-1H-pyrazole-3-sulfonamide] | < 40 nM | < 400 nM
6 | CCn1nc(S(=O)(=O)NC(=O)Nc2c(-c3ccnc(OC)c3)cc(F)c3c2CCC3)cc1CN(C)C [Example 21, 5-((Dimethylamino)methyl)-1-ethyl-N-((7-fluoro-5-(2-methoxypyridin-4-yl)-2,3-dihydro-1H-inden-4-yl)carbamoyl)-1H-pyrazole-3-sulfonamide] | < 40 nM | < 400 nM
7 | CC(c1cc(S(=O)(=O)NC(=O)Nc2c3c(cc4c2CCC4)CCC3)nn1C1CC1)N(C)C (stereo not shown) [Example 22, 1-Cyclopropyl-5-(1-(dimethylamino)ethyl)-N-((1,2,3,5,6,7-hexahydro-s-indacen-4-yl)carbamoyl)-1H-pyrazole-3-sulfonamide] | < 40 nM | 400 to 800 nM
8 | CCC(c1cc(S(=O)(=O)NC(=O)Nc2c3c(cc4c2CCC4)CCC3)nn1C1CC1)N1CCC1 (stereo not shown) [Example 23, 5-(1-(Azetidin-1-yl)propyl)-1-cyclopropyl-N-((1,2,3,5,6,7-hexahydro-s-indacen-4-yl)carbamoyl)-1H-pyrazole-3-sulfonamide] | < 40 nM | < 400 nM
9 | CC1CN(C(C)c2cc(S(=O)(=O)NC(=O)Nc3c4c(cc5c3CCC5)CCC4)nn2C)C1 (stereo not shown) [Example 29, N-((1,2,3,5,6,7-Hexahydro-s-indacen-4-yl)carbamoyl)-1-methyl-5-(1-(3-methylazetidin-1-yl)ethyl)-1H-pyrazole-3-sulfonamide] | 40 to 160 nM | 400 to 800 nM
10 | CC(C)n1nc(S(=O)(=O)NC(=O)Nc2c3c(cc4c2CCC4)CCC3)cc1C1(N(C)C)CC1 [Example 32, 5-(1-(Dimethylamino)cyclopropyl)-N-((1,2,3,5,6,7-hexahydro-s-indacen-4-yl)carbamoyl)-1-isopropyl-1H-pyrazole-3-sulfonamide] | 40 to 160 nM | 400 to 800 nM
11 | CCn1nc(S(=O)(=O)NC(=O)Nc2c(-c3ccnc(C#N)c3)cc(F)cc2C(C)C)cc1CN(C)C [Example 35, N-((2-(2-Cyanopyridin-4-yl)-4-fluoro-6-isopropylphenyl)carbamoyl)-5-((dimethylamino)methyl)-1-ethyl-1H-pyrazole-3-sulfonamide] | 40 to 160 nM | < 400 nM
12 | CC(C)c1cc(F)cc(-c2ccnc(C#N)c2)c1NC(=O)NS(=O)(=O)c1cc(CN(C)C)n(C)n1 [Example 36, N-((2-(2-Cyanopyridin-4-yl)-4-fluoro-6-isopropylphenyl)carbamoyl)-5-((dimethylamino)methyl)-1-methyl-1H-pyrazole-3-sulfonamide] | 40 to 160 nM | < 400 nM
13 | CC(C)c1cc(F)cc(-c2ccccc2)c1NC(=O)NS(=O)(=O)c1cc(CN(C)C)n(C(C)C)n1 [Example 39, 5-((Dimethylamino)methyl)-N-((5-fluoro-3-isopropyl-[1,1′-biphenyl]-2-yl)carbamoyl)-1-isopropyl-1-H-pyrazole-3-sulfonamide] | 640 to 2560 nM | 1600 to 3200 nM

Continued, values first:

Row | IC50 [1] | IC50 [2] | SMILES
14 | < 40 nM | < 400 nM | CCC(c1cc(S(=O)(=O)NC(=O)Nc2c3c(cc4c2CCC4)CCC3)nn1C)N(C)C (single isomer, unassigned; enantiomer 1) [Example 71, 5-(1-(Dimethylamino)propyl)-N-((1,2,3,5,6,7-hexahydro-s-indacen-4-yl)carbamoyl)-1-methyl-1H-pyrazole-3-sulfonamide, Enantiomer 1]
15 | < 40 nM | < 400 nM | CC(c1cc(S(=O)(=O)NC(=O)Nc2c3c(cc4c2CCC4)CCC3)nn1C)N(C)C (single isomer, unassigned; enantiomer 2) [Example 70, 5-(1-(Dimethylamino)ethyl)-N-((1,2,3,5,6,7-hexahydro-s-indacen-4-yl)carbamoyl)-1-methyl-1H-pyrazole-3-sulfonamide, Enantiomer 2]
16 | 40 to 160 nM | 400 to 800 nM | CN(C)Cc1cc(S(=O)(=O)NC(=O)Nc2c3c(cc4c2CCC4)CCC3)nn1CC(C)(C)C [Example 31, 5-((Dimethylamino)methyl)-N-((1,2,3,5,6,7-hexahydro-s-indacen-4-yl)carbamoyl)-1-neopentyl-1H-pyrazole-3-sulfonamide]
17 | 160 to 640 nM | 400 to 800 nM | CC(C)n1nc(S(=O)(=O)NC(=O)Nc2c3c(cc4c2CCC4)CCC3)cc1CCN(C)C [Example 33, 5-(2-(Dimethylamino)ethyl)-N-((1,2,3,5,6,7-hexahydro-s-indacen-4-yl)carbamoyl)-1-isopropyl-1H-pyrazole-3-sulfonamide, Sodium Salt]
18 | 40 to 160 nM | 400 to 800 nM | CN(C)C(C)(C)c1cc(S(=O)(=O)NC(=O)Nc2c3c(cc4c2CCC4)CCC3)nn1C [Example 34, 5-(2-(Dimethylamino)propan-2-yl)-N-((1,2,3,5,6,7-hexahydro-s-indacen-4-yl)carbamoyl)-1-methyl-1H-pyrazole-3-sulfonamide]
19 | < 40 nM | 3200 to 10000 nM | CN(C)Cc1cc(S(=O)(=O)NC(=O)Nc2c3c(cc4c2CCC4)CCC3)nn1C(C)(C)C [Example 37, 1-(tert-Butyl)-5-((dimethylamino)methyl)-N-((1,2,3,5,6,7-hexahydro-s-indacen-4-yl)carbamoyl)-1H-pyrazole-3-sulfonamide]
20 | 40 to 160 nM | 1600 to 3200 nM | CC(C)(C)n1nc(S(=O)(=O)NC(=O)Nc2c3c(cc4c2CCC4)CCC3)cc1CN1CCC1 [Example 38, 5-(Azetidin-1-ylmethyl)-1-(tert-butyl)-N-((1,2,3,5,6,7-hexahydro-s-indacen-4-yl)carbamoyl)-1H-pyrazole-3-sulfonamide]
